SMILES strings stand for the structures.

Broadly, the Cmax is the maximum level reached in the sampled fluid or tissue. The AUC is concentration integrated over time.

The series is described as follows: Pharmacokinetics of resveratrol-containing particles in orally dosed Sprague-Dawley rats. Format: in vivo. The following applies: rat, plasma, 20 mg/kg. As for the experimental part: Parameters were estimated using Watson pharmacokinetic software 7.4.2 (Thermo Electron Corporation) using a non-compartmental approach consistent with the various routes of administration. All parameters were generated from […] individual animal concentrations in plasma. Parameters were estimated using nominal sampling times to be relative to the start of each dose administration (within an acceptable tolerance limit). As no dose formulation samples were analyzed, the nominal calculated dose for active ingredient (20 mg/kg, as per the study protocol, was used for dose-normalization purposes). The area under the test item concentration versus time curve (AUC) was calculated using the linear-log linear trapezoidal method. AUC was not calculated for PK profiles with less than 3 consecutive quantifiable concentrations of test article at separate time points. When practical, the terminal elimination phase of each concentration versus time curve was identified using at least the final three observed concentration values. The slope of the terminal elimination phase was determined using linear regression on the unweighted concentration data. […] The parameters described below were reported to 3 significant figures. Animals were fasted overnight, food was returned 4 hours post dosing. […] Aggregated data is summarized for individual animals in Table 4, below.

Under “oral”, `Oc1ccc(C=Cc2cc(O)cc(O)c2)cc1` [Unencapsulated Resveratrol, Resveratrol] displayed a concentration at 0.5 h of 78.4 ng/mL, a concentration at 1 h of 29.3 ng/mL and a concentration at 2 h of 47.2 ng/mL. Further, the Cmax (po) stood at 82.4 ng/mL. Besides, the AUC (po, read-out: AUC(0-x)) was 82.8 ng·h/mL.

Values taken from US20190175507A1, “COMPOSITIONS FOR ORAL ADMINISTRATION OF ACTIVE AGENTS” (Tamarisk Technologies Group LLC, priority 2016, published 2019).
